Data on 15 compounds can be found in patent EP0417790B1, “S-triazolo[3,4-i]purine derivatives” (Kyowa Hakko Kogyo Co., Ltd., priority 1989, dated 1991).

pIC50: −log10 of the molar value. Like-named read-outs stand apart in the source and are kept apart here.

In one data set the test system is trachea. Put plainly: Passive Schultz-Dale reaction (broncho-dilatory effect) on isolated tracheal strips. Particulars: Cavia porcellus; 50% relaxation of antigen (EWA, 1 µg/ml)-contracted tracheal strips of passively sensitized guinea pigs. Here is the method: Guinea pigs were passively sensitized as follows. Hartley male guinea pigs weighing 350 to 500 g were injected intraperitoneally with rabbit anti-egg albumin (EWA) serum prepared by the method of Koda et al. [Folia pharmacol., Japon 66, 237, (1970)]. After 24 hours, the guinea pigs were stunned and exsanguinated, and then trachea was excised. The zig-zag strips of the trachea were prepared by the method of Emmerson and Mackay [J. Pharm. Pharmacol., 31, 798, (1979)]. The strips were suspended in Krebs-Henseleit solution at 37°C under aeration of a mixed gas of 95% oxygen and 5% carbon dioxide, and incubated for one hour. Antigen (EWA) was then introduced in the solution (final concentration; 1 µg/ml), and the contraction was measured by isotonictransducer (TD-112s, made by Nihon Kohden K.K., Japan) and recorded on a recorder (Type 3066, made by Yokogawa-Hokushin Denki, K.K. Japan). After the contraction curves reached plateau the compounds were successively added in order to get cumulative concentration-relaxation curves. Concentration of 50% relaxation rate (IC50) was calculated from the regression line, which was obtained from cumulative concentration-relaxation curves.

The subject of the next data set is Wistar male rats. The experiment in a line: Diuretic activity. Type of data set: in vivo. Particulars: Rattus norvegicus, po, 25 mg/kg orally, urine taken for 6 hours. Here is the method:
Wistar male rats weighing 150 to 300 g were used after fasting for 18 hours. […] The test was performed using 3 groups per test compound, and each group consists of 3 animals. The urine was metered by a measuring cylinder and electrolytes (Na^+ and K^+) in the urine were analyzed by flame photometer (model […]: Hitachi Ltd.). Parameters in Table 3 are represented by relative value for control.

The subject of a further data set is male dd-mice. Put plainly: Acute toxicity. The class given is in vivo. As to conditions: Minimum lethal dose, oral, mortality observed for seven days. The method, then: The compounds were orally administrated to male dd-mice weighing 20 ± 1 g. Minimum lethal dose (MLD) was determined by observing the mortality for seven days after the administration.
The subject of a further data set is male dd mice. The experiment in a line: Inhibition of platelet activating factor (PAF)-induced mortality. The class given is in vivo. Particulars: Mus musculus, minimum effective dose, oral, 1 hour before 40 µg/kg PAF i.v., mortality 2 hours after PAF, read-out: PAF-induced mortality MED. Here is the method:
The experiment was performed by a minor modification of method of Carlson et al. [Agents and Actions, 21, 379 (1987)]. Groups each consisting of 10 male dd mice (weighing 28 to 32 g) were used, and 100 mg/kg of test compound or a saline (control) was orally administrated. One hour after the administration of test compound, 40 µg/kg of PAF (manufactured by Avanti Polar Lipids Co., Ltd.) was intravenously administered. Two hours after PAF injection, the mortality rate of the animals was observed. […]

Setting [1] is: relative value for control (1.00), read-out: Na^+/K^+.
[2] abbreviates: relative value for control (100), read-out: Excretion of K^+.
The mark [3] stands for this setting: relative value for control (100), read-out: Excretion of Na^+.
Where [4] appears, read: relative value for control (100), read-out: Urine volume.

As a reminder, the pIC50 is −log10 of the IC50, conventionally taken in molar units. Turning to `CCCn1c(=O)n2c(-c3ccccc3)nnc2c2c1ncn2C` [Compound 1, 6,9-Dihydro-9-methyl-3-phenyl-6-n-propyl-5H-1,2,4-triazolo-[3,4-i]purin-5-one], the negative logarithm of the IC50 (pIC50) with trachea is 5.39. The response vs control in vivo at 25 mg/kg in the data set on Wistar male rats (setting [1]) turned out to be 318%; with Wistar male rats (setting [2]), 87%; with Wistar male rats (setting [3]), 226%; with Wistar male rats (setting [4]) it was 255%. In addition, the MLD in the data set on male dd-mice is 100 mg/kg.

For `CCCn1c(=O)n2c(-c3cccs3)nnc2c2c1ncn2C` [Compound 2, 6,9-Dihydro-9-methyl-6-n-propyl-3-(2-thienyl)-5H-1,2,4-triazolo[3,4-i]purin-5-one], the pIC50 with trachea is 6.40. This compound showed an MLD in the data set on male dd-mice of 300 mg/kg.

Turning to `CCCn1c(=O)n2c(-c3ccco3)nnc2c2c1ncn2C` [Compound 5, 6,9-Dihydro-3-(2-furyl)-9-methyl-6-n-propyl-5H-1,2,4-triazolo[3,4-i]purin-5-one], the minimal effective dose with male dd mice was 100 mg/kg. In addition, the negative-log IC50 (pIC50) with trachea is 6.15. Besides, the MLD in the data set on male dd-mice is given as >300 mg/kg.

Take `CCCn1c(=O)n2c(-c3ccoc3C)nnc2c2c1ncn2C` [Compound 6, 6,9-Dihydro-9-methyl-3-(2-methyl-3-furyl)-6-n-propyl-5H-1,2,4-triazolo[3,4-i]purin-5-one]: the minimal effective dose in the data set with male dd mice worked out at 100 mg/kg. Also, the response vs control in vivo at 25 mg/kg stood at 164% in the data set with Wistar male rats (setting [1]), 146% in the data set with Wistar male rats (setting [2]), 240% in the data set with Wistar male rats (setting [3]) and 223% in the data set on Wistar male rats (setting [4]). In the data set on male dd-mice, this compound returned an MLD of 200 mg/kg.

As to `CCCn1c(=O)n2c(-c3cccc(OC)c3)nnc2c2c1ncn2C` [Compound 8, 6,9-Dihydro-3-(3-methoxyphenyl)-9-methyl-6-n-propyl-5H-1,2,4-triazolo[3,4-i]purin-5-one], the pIC50 in the data set on trachea is 5.25. Besides, the response vs control in vivo at 25 mg/kg in the data set with Wistar male rats (setting [1]) was determined as 144%; in the data set with Wistar male rats (setting [2]), 122%; in the data set with Wistar male rats (setting [3]), 175%; in the data set on Wistar male rats (setting [4]), 170%. Moreover, in the data set on male dd-mice, the MLD is given as >300 mg/kg.

In the case of `CCCn1c(=O)n2c(-c3ccc(OC)cc3)nnc2c2c1ncn2C` [Compound 9, 6,9-Dihydro-3-(4-methoxyphenyl)-9-methyl-6-n-propyl-5H-1,2,4-triazolo[3,4-i]purin-5-one], in the data set on trachea, the pIC50 was 5.11. The response vs control in vivo at 25 mg/kg with Wistar male rats (setting [1]) came to 157%; in the data set on Wistar male rats (setting [2]) it was 139%; in the data set on Wistar male rats (setting [3]), 219%; in the data set on Wistar male rats (setting [4]), 253%. In addition, the MLD in the data set with male dd-mice is recorded as >300 mg/kg.

As for `CCCn1c(=O)n2c(-c3ccccc3Cl)nnc2c2c1ncn2C` [Compound 10, 3-(2-Chlorophenyl)-6,9-dihydro-9-methyl-6-n-propyl-5H-1,2,4-triazolo[3,4-i]purin-5-one], in the data set with trachea, the negative-log IC50 (pIC50) is 4.74. In addition, the response vs control in vivo at 25 mg/kg was 124% in the data set on Wistar male rats (setting [1]), 109% in the data set with Wistar male rats (setting [2]), 134% in the data set with Wistar male rats (setting [3]) and 162% in the data set with Wistar male rats (setting [4]). The MLD in the data set with male dd-mice is listed as 300 mg/kg.

Regarding `CCCn1c(=O)n2c(-c3cccc(Cl)c3)nnc2c2c1ncn2C` [Compound 11, 3-(3-Chlorophenyl)-6,9-dihydro-9-methyl-6-n-propyl-5H-1,2,4-triazolo[3,4-i]purin-5-one], in the data set with male dd mice, the minimal effective dose is 100 mg/kg. The negative-log IC50 (pIC50) in the data set with trachea is < 4.40. In addition, the response vs control in vivo at 25 mg/kg is 226% with Wistar male rats (setting [1]), 134% in the data set with Wistar male rats (setting [2]), 302% with Wistar male rats (setting [3]) and 255% with Wistar male rats (setting [4]). For the same compound, the MLD with male dd-mice is given as >300 mg/kg.

In the case of `CCCn1c(=O)n2c(-c3ccc(C)cc3)nnc2c2c1ncn2C` [Compound 14, 6,9-Dihydro-9-methyl-3-(4-methylphenyl)-6-n-propyl-5H-1,2,4-triazolo[3,4-i]purin-5-one], the pIC50 in the data set with trachea was 4.35. In the data set on male dd-mice, the MLD is reported as >300 mg/kg.

Take `CCCn1c(=O)n2c(C)nnc2c2c1ncn2C` [Compound 24, 6,9-Dihydro-3,9-dimethyl-6-n-propyl-5H-1,2,4-triazolo-[3,4-i]purin-5-one]: the minimal effective dose with male dd mice was 100 mg/kg. For the same compound, the response vs control in vivo at 25 mg/kg in the data set on Wistar male rats (setting [1]) came to 123%; with Wistar male rats (setting [2]), 168%; in the data set with Wistar male rats (setting [3]), 148%; in the data set with Wistar male rats (setting [4]) it was 160%. In addition, the MLD in the data set with male dd-mice is 300 mg/kg.

Consider `Cn1cnc2c1c1nnc(-c3ccccc3)n1c(=O)n2-c1ccccc1` [Compound 29, 6,9-Dihydro-3,6-diphenyl-9-methyl-5H-1,2,4-triazolo[3,4-i]-purin-5-one], for which the response vs control in vivo at 25 mg/kg was determined as 141% in the data set with Wistar male rats (setting [1]), 110% with Wistar male rats (setting [2]), 155% with Wistar male rats (setting [3]) and 170% with Wistar male rats (setting [4]). Also, in the data set on male dd-mice, the MLD is on record as >300 mg/kg.

Turning to `CCCn1c(=O)n2c(-c3ccccc3)nnc2c2[nH]cnc21` [Compound 30, 6,9-Dihydro-3-phenyl-6-n-propyl-5H-1,2,4-triazolo[3,4-i]purin-5-one], the minimal effective dose with male dd mice worked out at 10 mg/kg. In addition, the negative-log IC50 (pIC50) in the data set with trachea is 6.12. Besides, the response vs control in vivo at 25 mg/kg worked out at 177% in the data set on Wistar male rats (setting [1]), 124% in the data set on Wistar male rats (setting [2]), 220% in the data set on Wistar male rats (setting [3]) and 204% in the data set with Wistar male rats (setting [4]). In the data set on male dd-mice, this compound gave an MLD of 300 mg/kg.

For `CCCn1c(=O)n2c(-c3ccncc3)nnc2c2c1ncn2Cc1ccccc1` [Compound 39, 9-Benzyl-6,9-dihydro-6-n-propyl-3-(4-pyridyl)-5H-1,2,4-triazolo[3,4-i]purin-5-one], the response vs control in vivo at 25 mg/kg in the data set on Wistar male rats (setting [1]) came out at 127%; in the data set with Wistar male rats (setting [2]) it was 145%; in the data set on Wistar male rats (setting [3]), 184%; with Wistar male rats (setting [4]), 185%. Further, the MLD in the data set on male dd-mice was >300 mg/kg.

For the compound `CCCn1cnc2c1c1nnc(-c3ccncc3)n1c(=O)n2CCC` [Compound 40Sa], the response vs control in vivo at 25 mg/kg was found to be 97% in the data set on Wistar male rats (setting [1]), 136% in the data set on Wistar male rats (setting [2]), 132% with Wistar male rats (setting [3]) and 155% in the data set on Wistar male rats (setting [4]). For the same compound, in the data set with male dd-mice, the MLD was 100 mg/kg.

Turning to `CCCn1cnc2c1c1n[nH]c(=O)n1c(=O)n2CCC` [Compound 44, 6,9-Di-n-propyl-2,5,6,9-tetrahydro-3H-1,2,4-triazolo[3,4-i]purin-3,5-dione], the pIC50 in the data set with trachea was 4.40. The response vs control in vivo at 25 mg/kg in the data set with Wistar male rats (setting [1]) amounted to 111%; in the data set on Wistar male rats (setting [2]), 128%; in the data set on Wistar male rats (setting [3]) it was 142%; in the data set with Wistar male rats (setting [4]), 191%. Further, in the data set on male dd-mice, the MLD is recorded as >300 mg/kg.
